Target: T1, XiaK (Streptomyces sp. SCSIO 02999, UniProt I3VFC1)
T1 sequence (I3VFC1 1-596): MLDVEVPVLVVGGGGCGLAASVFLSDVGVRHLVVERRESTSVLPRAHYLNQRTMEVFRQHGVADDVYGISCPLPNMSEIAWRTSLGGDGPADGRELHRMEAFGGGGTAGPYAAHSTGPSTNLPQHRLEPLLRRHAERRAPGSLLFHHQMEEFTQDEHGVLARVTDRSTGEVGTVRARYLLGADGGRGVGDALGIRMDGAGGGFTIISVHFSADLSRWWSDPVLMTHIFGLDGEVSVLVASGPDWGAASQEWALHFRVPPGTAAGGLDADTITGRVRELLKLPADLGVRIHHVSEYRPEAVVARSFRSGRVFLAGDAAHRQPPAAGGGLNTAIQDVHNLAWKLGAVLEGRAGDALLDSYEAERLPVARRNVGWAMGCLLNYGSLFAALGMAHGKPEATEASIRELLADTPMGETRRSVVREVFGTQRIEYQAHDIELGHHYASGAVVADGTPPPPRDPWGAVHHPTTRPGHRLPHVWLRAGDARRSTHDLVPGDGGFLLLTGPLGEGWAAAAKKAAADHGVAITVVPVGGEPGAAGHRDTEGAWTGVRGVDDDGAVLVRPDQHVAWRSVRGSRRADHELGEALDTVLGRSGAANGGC
Test: release of bound flavin by heat denaturation of purified protein
Format: binding
Conditions: noncovalently bound, co-purified cofactor

Structure (SMILES): Cc1cc2nc3c(=O)[nH]c(=O)nc-3n(C[C@H](O)[C@H](O)[C@H](O)COP(=O)(O)OP(=O)(O)OC[C@H]3O[C@@H](n4cnc5c(N)ncnc54)[C@H](O)[C@@H]3O)c2cc1C [FAD]
- release of bound flavin by heat denaturation of purified protein: released the noncovalently-bound flavin adenosine dinucleotide (FAD) cofactor upon heat denaturation

Reference: publication PMC5613243 (Chemical Science, 2017)
